The source of these data is US6069257A, “Process for the production of tetrazolylbenzopyrans” (SmithKline Beecham p.l.c., priority 1997, dated 2000).

SMILES strings stand for the structures.

For this test, the target named is T1, leukotriene D4 receptors (guinea pig lung membranes) (Cavia porcellus, UniProt Q2NNR5).
T1 construct: prepared from tissues obtained from male Hartley guinea pigs; from tissue; host or cells: guinea pig lung membranes (male Hartley guinea pigs)
T1 sequence (Q2NNR5 1-340): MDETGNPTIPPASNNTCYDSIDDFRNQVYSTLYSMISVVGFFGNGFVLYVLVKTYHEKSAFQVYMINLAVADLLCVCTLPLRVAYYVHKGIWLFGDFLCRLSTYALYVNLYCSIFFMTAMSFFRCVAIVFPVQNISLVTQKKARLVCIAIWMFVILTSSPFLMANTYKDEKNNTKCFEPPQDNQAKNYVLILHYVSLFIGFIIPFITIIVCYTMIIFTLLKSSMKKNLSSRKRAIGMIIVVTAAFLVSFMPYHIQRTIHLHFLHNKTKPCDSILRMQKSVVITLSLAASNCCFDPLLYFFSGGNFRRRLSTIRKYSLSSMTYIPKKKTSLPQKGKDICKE
Briefly: [3H]-LTD4 binding studies in guinea pig lung membranes. How it is done: Experimental Procedure for Binding Studies in Guinea-Pig Lungs with Pranlukast and Metabolites
Non-specific binding was determined in the presence of 0.5 uM cold LTD4. Membranes with bound ligand were captured on Whatman GF/C filters using vacuum filtration and a Brandel cell harvester, then washed with ice-cold 25 mM Tris-HCl. pH 7.4. The filters were placed in scintillation vials with 10 ml Ready Protein (Beckman, Fullerton, Calif., U.S.A.) and the radioactivity was determined by scintillation spectrometry.
All data are presented as Mean±S.E.M. Concentration-response curves (0.3-10,000 nM) for each compound were tested in at least 2 assays and run in duplicate. Cell-bound radioactivity was determined for each sample and non-specific binding was established in the presence of 1 uM unlabeled LTD4 and subtracted from control and drug-treated samples.

For orientation: Ki means a measure of affinity in units of concentration, obtained from inhibition or displacement. Molecule `O=C(Nc1cccc2c(=O)cc(-c3nnnn3O)oc12)c1ccc(OCCCCc2ccccc2)cc1` [Example 1, 4-Oxo-8-[4-(4-phenylbutoxy)benzoylamino]-2-(1-hydroxytetrazol-5-yl)-4H-1-benzopyran] gave a Ki of 0.22 nM.
The same measure for `O=C(Nc1cccc2c(=O)cc(-c3nnn(O)n3)oc12)c1ccc(OCCCCc2ccccc2)cc1` [Example 2, 4-Oxo-8-[4-(4-phenylbutoxy)benzoylamino]-2-(2-hydroxytetrazol-5-yl)-4H-1-benzopyran]: 0.53 nM.
